{"source": "patent US6380277B1", "about": "“Iodonium salt photoinitiators containing urethane groups for cationic curing” (Goldschmidt AG, priority 1999, dated 2002)", "key": {"[1]": {"test": "Solubility in toluene", "assay_type": "physicochemical", "text": "The solubility of the iodonium salts of the invention was compared with the solubility of the hydroxyl-bearing iodonium salts."}, "[2]": {"test": "Miscibility with organopolysiloxanes containing epoxy groups", "assay_type": "physicochemical"}, "[3]": {"test": "Tests relating to cationic photopolymerization (UV curing of coating)", "text": "In order to examine the activity of the compounds shown in Examples 1-4 in cationic photopolymerization, 98 parts of a cycloaliphatic epoxysilane having an epoxy value of 3.5% and a viscosity of 125 mPas were mixed with 2 parts of each photoinitiator.\nThe mixtures were then applied to a standard OPP film (30 μm) using a pilot-scale coating machine equipped with a five-roll applicator unit. The application weight was 0.5-1 g/m^2. The coatings were subsequently cured with a microwave-excited UV lamp (Fusion, 120 W/cm) at a web speed of 20 m/min.\nDirectly following passage under the UV lamp, it was determined whether the coatings have cured to a film which is no longer tacky."}, "[4]": {"test": "Hydrolytic stability: time to formation of visible precipitates or crystals", "assay_type": "physicochemical", "conditions": "time to formation of visible precipitates or crystals of hydrolytic cleavage product formula (XI)", "text": "The improved hydrolytic stability of the iodonium salts of the invention containing urethane groups may best be shown in comparison with the iodonium salt with the formula (XVI), containing Si—O—C bonds (see German Patent Application 19901531.7). [drawing 19]\nIndicated is the time to the formation of visible precipitates or crystals of the hydrolytic cleavage product with the formula (XI): […]"}}}
{"smiles": "CCCCCCCCCCCCC(O)COc1ccc([I+]c2ccccc2)cc1", "note": "(stereo not drawn) [Formula (XI)]", "values": [{"measurement": "Solubility in toluene", "setting": "[1]", "value": "insoluble"}, {"measurement": "melting point", "value": 91, "unit": "°C"}]}
{"smiles": "CCCCCCCCCCCCC(O)COc1ccc([I+]c2ccccc2)cc1", "note": "(stereo not drawn) [Formula (VIII)]", "values": [{"measurement": "solubility in toluol", "setting": "[1]", "value": "insoluble"}, {"measurement": "miscibility with organopolysiloxanes containing epoxy groups", "setting": "[2]", "value": "no miscibility"}, {"measurement": "Appearance of the mixture", "setting": "[3]; 2 parts photoinitiator in 98 parts cycloaliphatic epoxysilane (epoxy value 3.5%, 125 mPas)", "value": "cloudy,"}, {"measurement": "Curing after the UV lamp", "setting": "[3]; 2 parts photoinitiator, 0.5-1 g/m^2 on OPP film, UV lamp 120 W/cm, web speed 20 m/min, judged directly after lamp", "value": "unsatisfactory;"}]}
{"smiles": "CCCCCCCCCCCCC(COc1ccc([I+]c2ccccc2)cc1)OC(=O)Nc1cccc(C(F)(F)F)c1", "note": "(stereo not drawn) [Formula (VII)]", "values": [{"measurement": "solubility in toluol", "setting": "[1]", "value": "unrestricted solubility"}]}
{"smiles": "CCCCCCCCCCCCC(COc1ccc([I+]c2ccccc2)cc1)O[Si](C)(C)C", "note": "(stereo not drawn) [Formula (XVI)]", "values": [{"measurement": "Stability in 1-butanol (50% w/w)", "setting": "[4]; 50% w/w in 1-butanol", "value": 2, "unit": "days"}, {"measurement": "Stability in toluene (50% w/w)", "setting": "[4]; 50% w/w in toluene", "value": 21, "unit": "days"}]}
